pIC50: −log10 of the molar value. Like-named read-outs stand apart in the source and are kept apart here.
Legend:
[1] = test system: human glioblastoma astrocytoma (U373) cells;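 also: Resazurin-to-resorufin fluorescence viability readout, 8 h compound exposure then medium change, light dose 3.1 J cm^−2 at 480 nm or 9.5 J cm^−2 at 540 nm, analysed 40 h later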
Description: (§1) A total of 4 × 10^3 cells were seeded on 96-well plates and allowed to adhere overnight. The cells were treated with increasing concentrations of the sample diluted in cell media achieving a total volume of 200 μL. The cells were incubated with the sample for 8 h and, after this time, the medium refreshed. To study the phototoxic effect of the sample, the cells were exposed to 480 nm (spectral half-width: 20 nm, 10 min, 5.2 mW cm^−2, 3.1 J cm^−2) or 540 nm (spectral half-width: 30 nm, 40 min, 4.0 mW cm^−2, 9.5 J cm^−2) light using an Atlas Photonics LUMOS BIO irradiator. To study the dark cytotoxicity of the sample, the cells were not irradiated and the medium exchanged. The cells were grown for an additional 40 h at 37 °C. After this time, the medium was replaced with fresh medium containing resazurin with a final concentration of 0.2 mg mL^−1. The cells were incubated for 4 h and the amount of the fluorescent product resorufin determined (λex = 540 nm, λem = 590 nm) with a SpectraMax M2 Microplate Reader (Molecular Devices). The obtained data was analyzed with the GraphPad Prism software.

[2] = Two-photon absorption cross section; format: physicochemical; details: dichloromethane
Description: The two-photon absorption cross section spectra of the sample was determined upon direction comparison to Rhodamine B. The sample was irradiated with an OpoletteTM 355II (pulse width ≤ 100 fs, 80 MHz repetition rate, Spectra Physics Inc.) laser. The experimental excitation and detection conditions were conducted with negligible reabsorption processes, which could affect two-photon absorption measurements. The quadratic dependence of the two-photon induced luminescence intensity on the excitation power was verified at an excitation wavelength of 800 nm. The two-photon absorption cross section was calculated using the following equation:1 σ2,sample=σ2,reference×Φreference×creference×Isample×nsample/Φsample×csample×Ireference×nreference,
σ2 = two-photon cross section, Φ = luminescence quantum yield, c = concentration, I = integrated luminescence intensity, n = refractive index

[3] = test system: mouse colon carcinoma (CT-26) cells; assay: (Photo-)cytotoxicity on 2D cell monolayers, CT-26; details: for PI (480 nm): CT-26, dark vs 480 nm; for PI (540 nm): CT-26, dark vs 540 nm; for pIC50: 1-3 as chloride salts
Description: as §1

[4] = test system: mouse colon carcinoma (CT-26) cells
Description: as §1

[5] = test system: human glioblastoma astrocytoma (U373) cells; assay: (Photo-)cytotoxicity on 2D cell monolayers, U373; details: for PI (480 nm): U373, dark vs 480 nm; for PI (540 nm): U373, dark vs 540 nm; for pIC50: 1-3 as chloride salts;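 as to all read-outs here: Resazurin-to-resorufin fluorescence viability readout, 8 h compound exposure then medium change, light dose 3.1 J cm^−2 at 480 nm or 9.5 J cm^−2 at 540 nm, analysed 40 h later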
Description: as §1

[6] = Photostability (absorption spectra upon irradiation); format: physicochemical; details: 450 nm, 0 to 10 min (13.2 J cm^−2), air-saturated acetonitrile
Description: The sample was prepared in an air-saturated acetonitrile solution. Using a Atlas Photonics LUMOS BIO irradiator, the sample was constantly irradiated at 450 nm in time intervals from 0 to 10 min (13.2 J cm^−2). The absorption spectra from 350 to 700 nm was monitored with a SpectraMax M2 Microplate Reader (Molecular Devices) at each time interval. As positive and negative controls, respectively, [Ru(2,2′-bipyridine)3]Cl2 and Protoporphyrin IX were used.

[7] = test system: human cervical carcinoma (HeLa) cells; assay: (Photo-)cytotoxicity on 2D cell monolayers, HeLa; format: cell-based; details: for pIC50: 1-3 as chloride salts; for PI (480 nm): dark vs 480 nm; for PI (540 nm): dark vs 540 nm
Description: as §1

[8] = Excited state lifetime; format: physicochemical; details: for τ air, excited state lifetime: air saturated acetonitrile; for τ degassed, excited state lifetime: degassed acetonitrile
Description: The sample was prepared in an air saturated as well as a degassed acetonitrile solution with an absorption of 0.2 at 355 nm. The sample was irradiated at 355 nm with a NT342B Nd-YAG pumped optical parametric oscillator (Ekspla). The emission was focused at right angle to the excitation pathway and directed to a Princeton Instruments Acton SP-2300i monochromator. The signal was detected with a R928 photomultiplier tube (Hamamatsu).

[9] = Distribution coefficient (shake-flask, octanol/PBS); format: physicochemical; details: ICP-MS
Description: Using the “shake-flask” method, the distribution coefficient between the PBS and octanol phase of the sample was determined. The PBS and octanol phases were previously saturated in each other. The sample was dissolved in the phase, which is dissolving best the compound. This solution was added to an equal volume of the other phase and mixed at 190 rpm overnight with a sample mixer. Following this, the solutions were equilibrated for 4 h. The phases were carefully separated from each other. The amount of the sample in each phase was determined by ICP-MS. The evaluation was repeated three times and the ratio between the organic and aqueous phase determined.

[10] = test system: noncancerous retinal pigment epithelium (RPE-1) cells
Description: as §1

[11] = test system: noncancerous retinal pigment epithelium (RPE-1) cells; assay: (Photo-)cytotoxicity on 2D cell monolayers, RPE-1; details: for PI (480 nm): RPE-1, dark vs 480 nm; for PI (540 nm): RPE-1, dark vs 540 nm; for pIC50: 1-3 as chloride salts
Description: as §1

[12] = Singlet oxygen quantum yield, direct evaluation (1O2 phosphorescence); format: physicochemical
Description: Direct evaluation: the sample was prepared in an air-saturated acetonitrile or deuterated water solution with an absorption of 0.2 at 450 nm. The sample was irradiated at 450 nm with a mounted M450LP1 LED (Thorlabs), whose light was focused with aspheric condenser lenses. Using a T-Cube LED Driver (Thorlabs), the intensity of the irradiation was varied and monitored with an optical power and energy meter. The emission was focused at right angle to the excitation pathway and directed to a Princeton Instruments Acton SP-2300i monochromator. To cut off light at wavelengths shorter than 850 nm, a longpass glass filter was placed in front of the monochromator entrance slit. The signal was detected with an EO-817L IR-sensitive liquid-nitrogen cooled germanium diode detector (North Coast Scientific Corp.). The luminescence signal, centered at 1270 nm, was measured from 1100 to 1400 nm. The obtained data were analyzed upon plotting the integrated luminescence peaks against the percentage of the irradiation intensity. The slope of the linear regression was calculated and compared with the reference Rose Bengal (Φ = 76%)[59]. The absorption of the sample was corrected with an absorption correction factor. The singlet oxygen quantum yields were calculated using the following formula:4 Φsample=Φreference×Ssample/Sreference×Ireference/Isample, 5 I=I0×1−10^-A.
Φ = singlet oxygen quantum yield, S = slope of the linear regression of the plot of the areas of the singlet oxygen luminescence peaks against the irradiation intensity, I = absorption correction factor, I0 = light intensity of the irradiation source, and A = absorption of the sample at irradiation wavelength.

[13] = read-out: IC50 540 nm (40 min, 9.5 J cm-2), CT-26, 540 nm
[14] = read-out: IC50 dark, CT-26, dark
[15] = read-out: IC50 480 nm (10 min, 3.1 J cm-2), U373, 480 nm
[16] = read-out: IC50 dark, U373, dark
[17] = 480 nm, read-out: IC50 480 nm (10 min, 3.1 J cm-2)
[18] = 540 nm, read-out: IC50 540 nm (40 min, 9.5 J cm-2)
[19] = read-out: IC50 540 nm (40 min, 9.5 J cm-2), RPE-1, 540 nm
[20] = read-out: IC50 dark, RPE-1, dark

| SMILES | pIC50 [1] | σ2, 2P absorption cross section [2] | PI (480 nm) [3] | PI (540 nm) [3] | pIC50 [3, 13] | pIC50 [3, 14] | pIC50 [4] | PI (480 nm) [5] | PI (540 nm) [5] | pIC50 [5, 15] | pIC50 [5, 16] | photostability (change of absorption spectra upon irradiation) [6] | pIC50 [7, 17] | pIC50 [7, 18] | PI (540 nm) [7] | pIC50 ([7]; dark, read-out: IC50 dark) | τ air, excited state lifetime [8] | τ degassed, excited state lifetime [8] | logD (octanol/PBS) [9] | pIC50 [10] | further results |
| --- | --- | --- | --- | --- | --- | --- | --- | --- | --- | --- | --- | --- | --- | --- | --- | --- | --- | --- | --- | --- | --- |
| CN(C)c1ccc(/C=C/c2ccnc(-c3cc(/C=C/c4ccc(N(C)C)cc4)ccn3)c2)cc1.CN(C)c1ccc(/C=C/c2ccnc(-c3cc(/C=C/c4ccc(N(C)C)cc4)ccn3)c2)cc1.F[P-](F)(F)(F)(F)F.F[P-](F)(F)(F)(F)F.[Ru+2].c1ccc(-c2ccccn2)nc1 [compound 4, [Ru(2,2′-bipyridine)((E,E′)-4,4′-Bis[p-(N,N-dimethylamino)styryl]-2,2′-bipyridine)2][PF6]2] | 4.72 | 838 GM | > 13.7 | > 10.4 | 5.02 | < 4.00 | 5.14 | > 7.0 | > 5.3 | 4.84 | < 4.00 | small changes in the absorption spectra | 5.07 | 4.97 | > 9.4 | < 4.00 | 69 ns | 417 ns | +1.7 ± 0.3 | 4.96 | PI (480 nm) [7]: > 11.8; PI (480 nm) [11]: > 9.2; PI (540 nm) [11]: > 6.8; pIC50 [11, 19]: 4.83; pIC50 [11, 20]: < 4.00; Singlet oxygen quantum yield, Direct 450 nm CH3CN [12]: 34% |
| COc1ccc(/C=C/c2ccnc(-c3cc(/C=C/c4ccc(OC)cc4)ccn3)c2)cc1.COc1ccc(/C=C/c2ccnc(-c3cc(/C=C/c4ccc(OC)cc4)ccn3)c2)cc1.F[P-](F)(F)(F)(F)F.F[P-](F)(F)(F)(F)F.[Ru+2].c1ccc(-c2ccccn2)nc1 [compound 5, [Ru(2,2′-bipyridine)((E,E′)-4,4′-Bis[p-methoxystyryl]-2,2′-bipyridine)2][PF6]2] | 4.75 | 313 GM | > 19.6 | > 16.1 | 5.21 | < 4.00 | 5.29 | > 6.5 | > 5.6 | 4.82 | < 4.00 | no significant differences in the absorption spectra | 5.19 | 5.10 | > 12.7 | < 4.00 | 36 ns | 231 ns | +1.4 ± 0.2 | 4.99 | PI (480 nm) [11]: > 9.8; PI (540 nm) [11]: > 7.9; pIC50 [11, 19]: 4.90; pIC50 [11, 20]: < 4.00; Singlet oxygen quantum yield, Direct 450 nm CH3CN [12]: 54% |
| CN(C)c1ccc(/C=C/c2ccnc(-c3cc(/C=C/c4ccc(N(C)C)cc4)ccn3)c2)cc1.F[P-](F)(F)(F)(F)F.F[P-](F)(F)(F)(F)F.[Ru+2].c1ccc(-c2ccccn2)nc1.c1ccc(-c2ccccn2)nc1 [compound 6, [Ru(2,2′-bipyridine)2((E,E′)-4,4′-Bis[p-(N,N-dimethylamino)styryl]-2,2′-bipyridine)][PF6]2] | 4.97 | 349 GM | > 41.7 | > 32.3 | 5.51 | < 4.00 | 5.62 | > 12.0 | > 9.3 | 5.08 | < 4.00 | small changes in the absorption spectra | 5.28 | 5.24 | > 17.2 | < 4.00 | 54 ns | 405 ns | +0.7 ± 0.2 | 5.14 | PI (480 nm) [7]: > 18.9; PI (480 nm) [11]: > 13.7; PI (540 nm) [11]: > 12.3; pIC50 [11, 19]: 5.09; pIC50 [11, 20]: < 4.00; Singlet oxygen quantum yield, Direct 450 nm CH3CN [12]: 46% |
